The subject of this experiment is recombinant rabies virus 1088 strain expressing Gaussia Luciferase (GLuc) (1088/GLuc). In kind it is cell-based. To be noted: read-out: Anti-rabies activity.

For the molecule `CC(C)CC[C@@H]1[C@H]2CN[C@@]3(C(=O)NCCC(N)=O)[C@@H](C2)CN(Cc2cccc4ccccc24)[C@@H]13` [IB-349], the IC50 was under 5 µM.
In the case of `CC(C)C[C@@H]1[C@H]2CN[C@@]3(C(=O)NCCCNC(=N)N)[C@@H](C2)CN(Cc2cccc4ccccc24)[C@@H]13` [IB-350] it was 10 to 30 µM.
On to `N=C(N)NCCCNC(=O)[C@]12NC[C@H]3C[C@H]1CN(Cc1cccc4ccccc14)[C@H]2[C@@H]3Cc1ccccc1` [IB-351], for which the IC50 lay in the range of 10 to 30 µM.
In the case of `CC(C)CC[C@@H]1[C@H]2CN[C@@]3(C(=O)NCCCNC(=N)N)[C@@H](C2)CN(Cc2cccc4ccccc24)[C@@H]13` [IB-353], the IC50 is under 5 µM.
In the case of `N=C(N)NCCCNC(=O)[C@]12NC[C@H]3C[C@H]1CN(Cc1cccc4ccccc14)[C@H]2[C@@H]3CCc1ccccc1` [IB-354], the IC50 was under 5 µM.
In the case of `CC(C)CC[C@@H]1[C@H]2CN[C@@]3(C(=O)NCCC(N)=O)[C@@H](C2)CN(CC2CCCCC2)[C@@H]13` [IB-357] it was 10 to 30 µM; in that of `CC(C)CC[C@@H]1[C@H]2CN[C@@]3(C(=O)NCCCNC(=N)N)[C@@H](C2)CN(CC2CCCCC2)[C@@H]13` [IB-361], 10 to 30 µM.
The figure for `N=C(N)NCCCNC(=O)[C@]12NC[C@H]3C[C@H]1CN(CC1CCCCC1)[C@H]2[C@@H]3CCc1ccccc1` [IB-362] is under 5 µM; for `CC(C)CC[C@@H]1[C@H]2CN[C@@]3(C(=O)NCCC(N)=O)[C@@H](C2)CN(Cc2ccc(F)cc2)[C@@H]13` [IB-365] it is 10 to 30 µM.
The figure for `CC(C)CC[C@@H]1[C@H]2CN[C@@]3(C(=O)NCCCNC(=N)N)[C@@H](C2)CN(Cc2ccc(F)cc2)[C@@H]13` [IB-369] is 10 to 30 µM; for `CC(C)CC[C@@H]1[C@H]2CN[C@@]3(C(=O)NCC(C)C)[C@@H](C2)CN(CCO)[C@@H]13` [IB-372] it is 10 to 30 µM.
As for `CC(C)CC[C@@H]1[C@H]2CN[C@@]3(C(=O)NCC(C)C)[C@@H](C2)CN(CC(C)C)[C@@H]13` [IB-378], the IC50 is under 5 µM.
In the case of `CC(C)CCN1C[C@@H]2C[C@@H]3CN[C@]2(C(=O)NCCC(=O)O)[C@@H]1[C@@H]3Cc1cccc2ccccc12` [IB-381] it was 10 to 30 µM; in that of `O=C(O)CCNC(=O)[C@]12NC[C@H]3C[C@H]1CN(Cc1ccc(F)cc1)[C@H]2[C@@H]3Cc1cccc2ccccc12` [IB-384], 10 to 30 µM.
As for `CC(C)CCN1C[C@@H]2C[C@@H]3CN[C@]2(C(=O)NCc2ccc(F)cc2)[C@@H]1[C@@H]3CCC(=O)O` [IB-386], the IC50 was in the range of 10 to 30 µM.
The figure for `O=C(O)CC[C@@H]1[C@H]2CN[C@@]3(C(=O)NCc4cccc5ccccc45)[C@@H](C2)CN(CC2CCCCC2)[C@@H]13` [IB-389] is 10 to 30 µM.
The figure for `O=C(O)CC[C@@H]1[C@H]2CN[C@@]3(C(=O)NCc4cccc5ccccc45)[C@@H](C2)CN(Cc2ccc(F)cc2)[C@@H]13` [IB-390] is 10 to 30 µM.
The figure for `CC(C)C[C@@H]1[C@H]2CN[C@@]3(C(=O)NCc4cccc5ccccc45)[C@@H](C2)CN(CCC(=O)O)[C@@H]13` [IB-392] is 10 to 30 µM.
With `O=C(O)CCN1C[C@@H]2C[C@@H]3CN[C@]2(C(=O)NCc2ccc(F)cc2)[C@@H]1[C@@H]3Cc1ccccc1` [IB-394], the IC50 was in the range of 10 to 30 µM.
In the case of `CC(C)CC[C@@H]1[C@H]2CN[C@@]3(C(=O)NCc4cccc5ccccc45)[C@@H](C2)CN(CCC(=O)O)[C@@H]13` [IB-398], the IC50 was 10 to 30 µM.
For `CC(C)CC[C@@H]1[C@H]2CN[C@@]3(C(=O)NCc4ccc(F)cc4)[C@@H](C2)CN(CCC(=O)O)[C@@H]13` [IB-399], the IC50 was 10 to 30 µM.
As for `CC(C)CC[C@@H]1[C@H]2CN[C@@]3(C(=O)NCc4ccc(O)cc4)[C@@H](C2)CN(CCC(=O)O)[C@@H]13` [IB-402], the IC50 was in the range of 10 to 30 µM.
The figure for `O=C(O)CCNC(=O)[C@]12NC[C@H]3C[C@H]1CN(Cc1ccc(O)cc1)[C@H]2[C@@H]3Cc1cccc2ccccc12` [IB-410] is 10 to 30 µM; for `O=C(NCc1ccc(O)cc1)[C@]12NC[C@H]3C[C@H]1CN(Cc1cccc4ccccc14)[C@H]2[C@@H]3Cc1cccc2ccccc12` [IB-417] it is 10 to 30 µM.
In the case of `O=C(O)CC[C@@H]1[C@H]2CN[C@@]3(C(=O)NCc4cccc5ccccc45)[C@@H](C2)CN(CCO)[C@@H]13` [IB-425] it was 10 to 30 µM; in that of `CC(C)CCN1C[C@@H]2C[C@@H]3CN[C@]2(C(=O)NCc2cccc4ccccc24)[C@@H]1[C@@H]3CO` [IB-426], under 5 µM.
Turning to `CC(C)CNC(=O)[C@]12NC[C@H]3C[C@H]1CN(CCC(=O)O)[C@H]2[C@@H]3CCc1ccccc1` [IB-430], the IC50 is under 5 µM.
For `CC(C)CNC(=O)[C@]12NC[C@H]3C[C@H]1CN(CCC(=O)O)[C@H]2[C@@H]3CO` [IB-431], the IC50 lay in the range of 10 to 30 µM.
As for `CC(C)C[C@@H]1[C@H]2CN[C@@]3(C(=O)NCc4ccc(O)cc4)[C@@H](C2)CN(CCc2ccccc2)[C@@H]13` [IB-449], the IC50 was 10 to 30 µM.
In the case of `CC(C)C[C@@H]1[C@H]2CN[C@@]3(C(=O)NCc4ccc(O)cc4)[C@@H](C2)CN(Cc2ccc(F)cc2)[C@@H]13` [IB-458] it was 10 to 30 µM.
For the molecule `O=C(NCCO)[C@]12NC[C@H]3C[C@H]1CN(Cc1cccc4ccccc14)[C@H]2[C@@H]3Cc1ccc(O)cc1` [IB-459], the IC50 is 10 to 30 µM.
In the case of `CC(C)CC[C@@H]1[C@H]2CN[C@@]3(C(=O)NCCO)[C@@H](C2)CN(CCc2ccccc2)[C@@H]13` [IB-461] it was 10 to 30 µM; in that of `CC(C)C[C@@H]1[C@H]2CN[C@@]3(C(=O)NCc4ccc(O)cc4)[C@@H](C2)CN(Cc2ccccc2)[C@@H]13` [IB-464], under 5 µM; in that of `CC(C)CC[C@@H]1[C@H]2CN[C@@]3(C(=O)NCc4ccc(O)cc4)[C@@H](C2)CN(CC(C)C)[C@@H]13` [IB-465], 10 to 30 µM.
In the case of `O=C(NCc1ccc(O)cc1)[C@]12NC[C@H]3C[C@H]1CN(CCO)[C@H]2[C@@H]3Cc1cccc2ccccc12` [IB-470] it was 10 to 30 µM; in that of `CCCCCCNC(=O)[C@]12NC[C@H]3C[C@H]1CN(CCO)[C@H]2[C@@H]3Cc1ccccc1` [IB-476], under 5 µM; in that of `CCCCCCNC(=O)[C@]12NC[C@H]3C[C@H]1CN(CCO)[C@H]2[C@@H]3CC(C)C` [IB-477], under 5 µM.
The figure for `CCCCCCNC(=O)[C@]12NC[C@H]3C[C@H]1CN(CCO)[C@H]2[C@@H]3Cc1ccc(O)cc1` [IB-478] is 10 to 30 µM; for `O=C(NCc1ccc(F)cc1)[C@]12NC[C@H]3C[C@H]1CN(CCO)[C@H]2[C@@H]3Cc1ccccc1` [IB-479] it is 10 to 30 µM.
With `CC(C)CCN1C[C@@H]2C[C@@H]3CN[C@]2(C(=O)NCc2ccc(F)cc2)[C@@H]1[C@@H]3Cc1ccc(O)cc1` [IB-481], the IC50 is under 5 µM.
In the case of `CCCCCCNC(=O)[C@]12NC[C@H]3C[C@H]1CN(CCO)[C@H]2[C@@H]3CCC(C)C` [IB-490] it was under 5 µM; in that of `O=C(NCc1ccc(F)cc1)[C@]12NC[C@H]3C[C@H]1CN(CCO)[C@H]2[C@@H]3CCc1ccccc1` [IB-492], under 5 µM.
The figure for `CC(C)C[C@@H]1[C@H]2CN[C@@]3(C(=O)NCCc4ccccc4)[C@@H](C2)CN(CC(C)C)[C@@H]13` [IB-495] is under 5 µM.
`CC(C)CN1C[C@@H]2C[C@@H]3CN[C@]2(C(=O)NCc2ccc(F)cc2)[C@@H]1[C@@H]3Cc1ccc(O)cc1` [IB-498]: the IC50 was under 5 µM.
Regarding `CC(C)C[C@@H]1[C@H]2CN[C@@]3(C(=O)NCc4ccc(F)cc4)[C@@H](C2)CN(Cc2ccc(O)cc2)[C@@H]13` [IB-499], the IC50 is under 5 µM.
Consider `CC(C)CC[C@@H]1[C@H]2CN[C@@]3(C(=O)NC(C)C)[C@@H](C2)CN(Cc2ccc(O)cc2)[C@@H]13` [IB-501], for which the IC50 is under 5 µM.
In the case of `CC(C)NC(=O)[C@]12NC[C@H]3C[C@H]1CN(Cc1ccc(O)cc1)[C@H]2[C@@H]3Cc1cccc2ccccc12` [IB-502] it was under 5 µM; in that of `CC(C)CCN1C[C@@H]2C[C@@H]3CN[C@]2(C(=O)NCc2ccccc2)[C@@H]1[C@@H]3CCC(=O)O` [IB-505], 10 to 30 µM; in that of `CC(C)CNC(=O)C12NCC3CC1CN(CCc1ccccc1)C2C3CCC(=O)O` (stereo not drawn) [IB-508], 10 to 30 µM.
In the case of `CC(C)CNC(=O)C12NCC3CC1CN(CC1CCCCC1)C2C3CCC(=O)O` (stereo not drawn) [IB-510], the IC50 fell in the range of 10 to 30 µM.
In the case of `O=C(O)CCN1CC2CC3CNC2(C(=O)NCc2ccc(O)cc2)C1C3CCc1ccccc1` (stereo not drawn) [IB-515] it was 10 to 30 µM.
As for `O=C(O)CCN1CC2CC3CNC2(C(=O)NCc2ccc(O)cc2)C1C3Cc1cccc2ccccc12` (stereo not drawn) [IB-516], the IC50 lay in the range of 10 to 30 µM.
Turning to `CC(C)CC1C2CNC3(C(=O)NCCC(N)=O)C(C2)CN(Cc2cccc4ccccc24)C13` (stereo not drawn) [IB-520], the IC50 was under 5 µM.
As to `NC(=O)CCNC(=O)C12NCC3CC1CN(Cc1cccc4ccccc14)C2C3Cc1ccc(O)cc1` (stereo not drawn) [IB-521], the IC50 lay within 10 to 30 µM.
`NC(=O)CCNC(=O)C12NCC3CC1CN(CC1CCCCC1)C2C3Cc1cccc2ccccc12` (stereo not drawn) [IB-522]: the IC50 is 10 to 30 µM.
The figure for `NC(=O)CCNC(=O)C12NCC3CC1CN(Cc1ccc(F)cc1)C2C3Cc1cccc2ccccc12` (stereo not drawn) [IB-525] is 10 to 30 µM; for `CC(C)CCC1C2CNC3(C(=O)NCCc4ccccc4)C(C2)CN(CCO)C13` (stereo not drawn) [IB-531] it is 10 to 30 µM.
The figure for `NC(=O)CCNC(=O)C12NCC3CC1CN(Cc1ccccc1)C2C3CCc1ccccc1` (stereo not drawn) [IB-535] is 10 to 30 µM; for `CC(C)CN1CC2CC3CNC2(C(=O)NCCc2ccccc2)C1C3Cc1ccc(O)cc1` (stereo not drawn) [IB-536] it is 10 to 30 µM; for `CC(C)CN1CC2CC3CNC2(C(=O)NCCC(N)=O)C1C3CCc1ccccc1` (stereo not drawn) [IB-539] it is 10 to 30 µM.
Take `CC(C)CC1C2CNC3(C(=O)NCCc4ccccc4)C(C2)CN(Cc2ccc(O)cc2)C13` (stereo not drawn) [IB-540]: the IC50 is 10 to 30 µM.
The figure for `CC(C)CC1C2CNC3(C(=O)NCc4cccc5ccccc45)C(C2)CN(Cc2ccc(O)cc2)C13` (stereo not drawn) [IB-541] is under 5 µM; for `CC(C)CCC1C2CNC3(C(=O)NCCc4ccccc4)C(C2)CN(Cc2ccc(O)cc2)C13` (stereo not drawn) [IB-544] it is 10 to 30 µM; for `O=C(NCc1ccc(F)cc1)C12NCC3CC1CN(CCO)C2C3Cc1ccc(O)cc1` (stereo not drawn) [IB-549] it is 10 to 30 µM.
The figure for `CCCCCCNC(=O)C12NCC3CC1CN(CCC(C)C)C2C3CC(C)C` (stereo not drawn) [IB-551] is under 5 µM.
In the case of `CC(C)CCN1CC2CC3CNC2(C(=O)NCc2ccc(F)cc2)C1C3CC(C)C` (stereo not drawn) [IB-553], the IC50 was under 5 µM.

The values above are taken from patent US11780841B2, “3,6-methano-1H-pyrrolo[3,2-b]pyridine and 3,6-methano-1H-pyrrolo[3,2-c]pyridine compounds and medicaments using same” (priority 2018, dated 2023).
